System: 777334-354-R2-J4-PDC tumor spheroids with HUVEC/MSC, viability
Assay: Anticancer human tumor 777334-354-R2-J4-PDC patient-derived pancreatic adenocarcinoma cell line growth inhibition [GQUAD]
Settings: for IC50: curve of first compound; for viability, T/C: stronger effect = lower value
Procedure, shortened: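 Multi-cell-type spheroids of tumor cells with HUVEC and mesenchymal stem cells, treated with drug combinations. Concentrations descend in half-log steps from near clinical Cmax, or from 10 microM where Cmax is unknown; viability read-out.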

[1] = second compound 0.0316 µM, first compound 0.0316 µM
[2] = second compound 0.0316 µM, first compound 0.1 µM
[3] = second compound 0.0316 µM, first compound 0.316 µM
[4] = second compound 0.0316 µM, first compound 1 µM
[5] = second compound 0.0316 µM, first compound 3.16 µM
[6] = second compound 0.0316 µM, first compound 10 µM
[7] = second compound 0.1 µM, first compound 0.0316 µM
[8] = second compound 0.1 µM, first compound 0.1 µM
[9] = second compound 0.1 µM, first compound 0.316 µM
[10] = second compound 0.1 µM, first compound 1 µM
[11] = second compound 0.1 µM, first compound 3.16 µM
[12] = second compound 0.1 µM, first compound 10 µM
[13] = second compound 0.316 µM, first compound 0.0316 µM
[14] = second compound 0.316 µM, first compound 0.1 µM
[15] = second compound 0.316 µM, first compound 0.316 µM
[16] = second compound 0.316 µM, first compound 1 µM
[17] = second compound 0.316 µM, first compound 3.16 µM
[18] = second compound 0.316 µM, first compound 10 µM
[19] = second compound 1 µM, first compound 0.0316 µM
[20] = second compound 1 µM, first compound 0.1 µM
[21] = second compound 1 µM, first compound 0.316 µM
[22] = second compound 1 µM, first compound 1 µM
[23] = second compound 1 µM, first compound 3.16 µM
[24] = second compound 1 µM, first compound 10 µM
[25] = second compound 3.16 µM, first compound 0.0316 µM
[26] = second compound 3.16 µM, first compound 0.1 µM
[27] = second compound 3.16 µM, first compound 0.316 µM
[28] = second compound 3.16 µM, first compound 1 µM
[29] = second compound 3.16 µM, first compound 3.16 µM
[30] = second compound 3.16 µM, first compound 10 µM
[31] = second compound 10 µM, first compound 0.0316 µM
[32] = second compound 10 µM, first compound 0.1 µM
[33] = second compound 10 µM, first compound 0.316 µM
[34] = second compound 10 µM, first compound 1 µM
[35] = second compound 10 µM, first compound 3.16 µM
[36] = second compound 10 µM, first compound 10 µM
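Note: spheroids exposed to compounds for 7 days before readout.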

COc1cc(C2c3cc4c(cc3C(OC3OC5COC(C)OC5C(O)C3O)C3COC(=O)C23)OCO4)cc(OC)c1O (stereo not drawn) + Cc1[nH]c2ccc(F)cc2c1-c1nc2c3cccnc3c3ncccc3c2[nH]1
IC50 (second compound 0.0316 µM): 6310 nM | IC50 (second compound 0.1 µM): 7250 nM | IC50 (second compound 0.316 µM): 5370 nM | IC50 (second compound 1 µM): 3270 nM | IC50 (second compound 3.16 µM): < 31.6 nM | IC50 (second compound 10 µM): < 31.6 nM | viability, T/C [1]: 95.9% | viability, T/C [2]: 91% | viability, T/C [3]: 90.1% | viability, T/C [4]: 71.4% | viability, T/C [5]: 64.4% | viability, T/C [6]: 41.5% | viability, T/C [7]: 104% | viability, T/C [8]: 91.7% | viability, T/C [9]: 90.2% | viability, T/C [10]: 72.1% | viability, T/C [11]: 63.4% | viability, T/C [12]: 44.7% | viability, T/C [13]: 72.8% | viability, T/C [14]: 88.6% | viability, T/C [15]: 84.1% | viability, T/C [16]: 80% | viability, T/C [17]: 58.8% | viability, T/C [18]: 39.7% | viability, T/C [19]: 89.5% | viability, T/C [20]: 78.7% | viability, T/C [21]: 73.5% | viability, T/C [22]: 63.6% | viability, T/C [23]: 54.1% | viability, T/C [24]: 32.3% | viability, T/C [25]: 36.6% | viability, T/C [26]: 47.1% | viability, T/C [27]: 33.7% | viability, T/C [28]: 22.4% | viability, T/C [29]: 22.2% | viability, T/C [30]: 15.9% | viability, T/C [31]: 32.6% | viability, T/C [32]: 22.6% | viability, T/C [33]: 27.6% | viability, T/C [34]: 15.1% | viability, T/C [35]: 16% | viability, T/C [36]: 12%

COc1cccc2c1C(=O)c1c(O)c3c(c(O)c1C2=O)CC(O)(C(=O)CO)CC3OC1CC(N)C(O)C(C)O1 (stereo not drawn) + Cc1[nH]c2ccc(F)cc2c1-c1nc2c3cccnc3c3ncccc3c2[nH]1
IC50 (second compound 0.0316 µM): 915 nM | IC50 (second compound 0.1 µM): 878 nM | IC50 (second compound 0.316 µM): 923 nM | IC50 (second compound 1 µM): 646 nM | IC50 (second compound 3.16 µM): < 31.6 nM | IC50 (second compound 10 µM): < 31.6 nM | viability, T/C [1]: 102% | viability, T/C [2]: 83.2% | viability, T/C [3]: 80.3% | viability, T/C [4]: 47.1% | viability, T/C [5]: 22.8% | viability, T/C [6]: 15% | viability, T/C [7]: 93.3% | viability, T/C [8]: 80.5% | viability, T/C [9]: 69.6% | viability, T/C [10]: 49.2% | viability, T/C [11]: 25.2% | viability, T/C [12]: 14.9% | viability, T/C [13]: 74.8% | viability, T/C [14]: 82.6% | viability, T/C [15]: 71.2% | viability, T/C [16]: 46.8% | viability, T/C [17]: 28.4% | viability, T/C [18]: 17.4% | viability, T/C [19]: 74.8% | viability, T/C [20]: 75.8% | viability, T/C [21]: 61.1% | viability, T/C [22]: 42.9% | viability, T/C [23]: 22.5% | viability, T/C [24]: 13.6% | viability, T/C [25]: 40.4% | viability, T/C [26]: 27.8% | viability, T/C [27]: 24.8% | viability, T/C [28]: 16.7% | viability, T/C [29]: 13.9% | viability, T/C [30]: 9.55% | viability, T/C [31]: 32% | viability, T/C [32]: 23% | viability, T/C [33]: 22.6% | viability, T/C [34]: 16.5% | viability, T/C [35]: 14.9% | viability, T/C [36]: 10.9%

Cc1cccc(N(C)C(=O)C2C(O)CCN2c2nc(C)cc(C(F)(F)F)c2C#N)c1 (stereo not drawn) + Cc1[nH]c2ccc(F)cc2c1-c1nc2c3cccnc3c3ncccc3c2[nH]1
IC50 (second compound 0.0316 µM): > 10000 nM | IC50 (second compound 0.1 µM): > 10000 nM | IC50 (second compound 0.316 µM): > 10000 nM | IC50 (second compound 1 µM): > 10000 nM | IC50 (second compound 3.16 µM): < 31.6 nM | IC50 (second compound 10 µM): < 31.6 nM | viability, T/C [1]: 112% | viability, T/C [2]: 104% | viability, T/C [3]: 95.3% | viability, T/C [4]: 95.5% | viability, T/C [5]: 94.5% | viability, T/C [6]: 92.9% | viability, T/C [7]: 97.6% | viability, T/C [8]: 97% | viability, T/C [9]: 92.1% | viability, T/C [10]: 93.4% | viability, T/C [11]: 103% | viability, T/C [12]: 101% | viability, T/C [13]: 95.3% | viability, T/C [14]: 88.5% | viability, T/C [15]: 101% | viability, T/C [16]: 95.8% | viability, T/C [17]: 95.8% | viability, T/C [18]: 91.2% | viability, T/C [19]: 78.8% | viability, T/C [20]: 85.4% | viability, T/C [21]: 83.3% | viability, T/C [22]: 71% | viability, T/C [23]: 90.4% | viability, T/C [24]: 87.2% | viability, T/C [25]: 35.1% | viability, T/C [26]: 36.6% | viability, T/C [27]: 37.3% | viability, T/C [28]: 31.1% | viability, T/C [29]: 33.5% | viability, T/C [30]: 46% | viability, T/C [31]: 32.4% | viability, T/C [32]: 34.5% | viability, T/C [33]: 35.7% | viability, T/C [34]: 30.5% | viability, T/C [35]: 25.7% | viability, T/C [36]: 38.8%

O=c1[nH]cc(F)c(=O)[nH]1 + Cc1[nH]c2ccc(F)cc2c1-c1nc2c3cccnc3c3ncccc3c2[nH]1
IC50 (second compound 0.0316 µM): > 10000 nM | IC50 (second compound 0.1 µM): > 10000 nM | IC50 (second compound 0.316 µM): > 10000 nM | IC50 (second compound 1 µM): > 10000 nM | IC50 (second compound 3.16 µM): < 31.6 nM | IC50 (second compound 10 µM): < 31.6 nM | viability, T/C [1]: 95.5% | viability, T/C [2]: 93.3% | viability, T/C [3]: 105% | viability, T/C [4]: 82.5% | viability, T/C [5]: 71.3% | viability, T/C [6]: 61.5% | viability, T/C [7]: 113% | viability, T/C [8]: 100% | viability, T/C [9]: 103% | viability, T/C [10]: 72% | viability, T/C [11]: 80.8% | viability, T/C [12]: 61.7% | viability, T/C [13]: 89.1% | viability, T/C [14]: 103% | viability, T/C [15]: 86.1% | viability, T/C [16]: 76.8% | viability, T/C [17]: 79.4% | viability, T/C [18]: 67.5% | viability, T/C [19]: 74.7% | viability, T/C [20]: 89.5% | viability, T/C [21]: 72.9% | viability, T/C [22]: 61.1% | viability, T/C [23]: 68.7% | viability, T/C [24]: 53.3% | viability, T/C [25]: 44.6% | viability, T/C [26]: 38.4% | viability, T/C [27]: 31.2% | viability, T/C [28]: 28.8% | viability, T/C [29]: 27.7% | viability, T/C [30]: 25% | viability, T/C [31]: 29.6% | viability, T/C [32]: 29.1% | viability, T/C [33]: 24.5% | viability, T/C [34]: 17.4% | viability, T/C [35]: 16.4% | viability, T/C [36]: 18.5%

— PubChem BioAssay AID2060499 (Molecular Pharmacology Branch, DTP, NCI, 2025)
